Test results reported in US20090298834A1, “4-(AMINOMETHYL)CYCLOHEXANAMINE DERIVATIVES AS CALCIUM CHANNEL BLOCKERS” (priority 2008, published 2009).

Each compound was assayed against T1, human α1H T-type channels (Homo sapiens, UniProt O95180) (assay: T-type calcium channel block, whole cell patch clamp (α1H)). Conditions: HEK cells stably expressing human α1H; mainly non-inactivated protocol; values above 10 μM represented as 10 μM.
T1 construct: expressed in transfected cells; host or cells: HEK 293
Assay type: cell-based
Procedure: (§1) T-type calcium channel blocking activity was assayed in human embryonic kidney cells, HEK 293, stably transfected with the T-type calcium channel subunits. Briefly, cells were cultured in Dulbecco's modified eagle medium (DMEM) supplemented with 10% fetal bovine serum, 200 U/ml penicillin and 0.2 mg/ml streptomycin at 37° C. with 5% CO2. At 85% confluency cells were split with 0.25% trypsin/1 mM EDTA and plated at 10% confluency on glass coverslips. At 12 hours the medium was replaced and the cells stably transfected using a standard calcium phosphate protocol and the appropriate calcium channel cDNA's. Fresh DMEM was supplied and the cells transferred to 28° C./5% CO2. Cells were incubated for 1 to 2 days prior to whole cell recording.
(§2) Standard patch-clamp techniques were employed to identify blockers of T-type currents. Briefly, previously described HEK cell lines stably expressing human α1G, α1H and α1I T-type channels were used for all the recordings (passage #: 4-20, 37° C., 5% CO2). Whole cell patch clamp experiments were performed using an Axopatch 200B amplifier (Axon Instruments, Burlingame, Calif.) linked to a personal computer equipped with pCLAMP software. Data were analyzed using Clampfit (Axon Instruments) and SigmaPlot 4.0 (Jandel Scientific). To obtain T-type currents, plastic dishes containing semi-confluent cells were positioned on the stage of a ZEISS AXIOVERT S100 microscope after replacing the culture medium with external solution (see below). Whole-cell patches were obtained using pipettes (borosilicate glass with filament, O.D.: 1.5 mm, I.D.: 0.86 mm, 10 cm length), fabricated on a SUTTER P-97 puller with resistance values of ˜5 MΩ (see below for internal solution).
(§3) In the non-inactivating protocol, the holding potential is set at −110 mV and with a pre-pulse at −100 mV for 1 second prior to the test pulse at −40 mV for 50 ms. In the inactivation protocol, the pre-pulse is at approximately −85 mV for 1 second, which inactivates about 15% of the T-type channels.
(§4) Test compounds were dissolved in external solution, 0.1-0.01% DMSO. After 10 min rest, they were applied by gravity close to the cell using a WPI microfil tubing. The “non-inactivated” pre-pulse was used to examine the resting block of a compound. The “inactivated” protocol was employed to study voltage-dependent block. However, the initial data shown below were mainly obtained using the non-inactivated protocol only. . IC50 values are shown for various compounds of the invention in Table 4 for the drug of interest. Values are shown in μM and values above 10 μM are simply represented as 10 μM.

T1 sequence (O95180 whole entry): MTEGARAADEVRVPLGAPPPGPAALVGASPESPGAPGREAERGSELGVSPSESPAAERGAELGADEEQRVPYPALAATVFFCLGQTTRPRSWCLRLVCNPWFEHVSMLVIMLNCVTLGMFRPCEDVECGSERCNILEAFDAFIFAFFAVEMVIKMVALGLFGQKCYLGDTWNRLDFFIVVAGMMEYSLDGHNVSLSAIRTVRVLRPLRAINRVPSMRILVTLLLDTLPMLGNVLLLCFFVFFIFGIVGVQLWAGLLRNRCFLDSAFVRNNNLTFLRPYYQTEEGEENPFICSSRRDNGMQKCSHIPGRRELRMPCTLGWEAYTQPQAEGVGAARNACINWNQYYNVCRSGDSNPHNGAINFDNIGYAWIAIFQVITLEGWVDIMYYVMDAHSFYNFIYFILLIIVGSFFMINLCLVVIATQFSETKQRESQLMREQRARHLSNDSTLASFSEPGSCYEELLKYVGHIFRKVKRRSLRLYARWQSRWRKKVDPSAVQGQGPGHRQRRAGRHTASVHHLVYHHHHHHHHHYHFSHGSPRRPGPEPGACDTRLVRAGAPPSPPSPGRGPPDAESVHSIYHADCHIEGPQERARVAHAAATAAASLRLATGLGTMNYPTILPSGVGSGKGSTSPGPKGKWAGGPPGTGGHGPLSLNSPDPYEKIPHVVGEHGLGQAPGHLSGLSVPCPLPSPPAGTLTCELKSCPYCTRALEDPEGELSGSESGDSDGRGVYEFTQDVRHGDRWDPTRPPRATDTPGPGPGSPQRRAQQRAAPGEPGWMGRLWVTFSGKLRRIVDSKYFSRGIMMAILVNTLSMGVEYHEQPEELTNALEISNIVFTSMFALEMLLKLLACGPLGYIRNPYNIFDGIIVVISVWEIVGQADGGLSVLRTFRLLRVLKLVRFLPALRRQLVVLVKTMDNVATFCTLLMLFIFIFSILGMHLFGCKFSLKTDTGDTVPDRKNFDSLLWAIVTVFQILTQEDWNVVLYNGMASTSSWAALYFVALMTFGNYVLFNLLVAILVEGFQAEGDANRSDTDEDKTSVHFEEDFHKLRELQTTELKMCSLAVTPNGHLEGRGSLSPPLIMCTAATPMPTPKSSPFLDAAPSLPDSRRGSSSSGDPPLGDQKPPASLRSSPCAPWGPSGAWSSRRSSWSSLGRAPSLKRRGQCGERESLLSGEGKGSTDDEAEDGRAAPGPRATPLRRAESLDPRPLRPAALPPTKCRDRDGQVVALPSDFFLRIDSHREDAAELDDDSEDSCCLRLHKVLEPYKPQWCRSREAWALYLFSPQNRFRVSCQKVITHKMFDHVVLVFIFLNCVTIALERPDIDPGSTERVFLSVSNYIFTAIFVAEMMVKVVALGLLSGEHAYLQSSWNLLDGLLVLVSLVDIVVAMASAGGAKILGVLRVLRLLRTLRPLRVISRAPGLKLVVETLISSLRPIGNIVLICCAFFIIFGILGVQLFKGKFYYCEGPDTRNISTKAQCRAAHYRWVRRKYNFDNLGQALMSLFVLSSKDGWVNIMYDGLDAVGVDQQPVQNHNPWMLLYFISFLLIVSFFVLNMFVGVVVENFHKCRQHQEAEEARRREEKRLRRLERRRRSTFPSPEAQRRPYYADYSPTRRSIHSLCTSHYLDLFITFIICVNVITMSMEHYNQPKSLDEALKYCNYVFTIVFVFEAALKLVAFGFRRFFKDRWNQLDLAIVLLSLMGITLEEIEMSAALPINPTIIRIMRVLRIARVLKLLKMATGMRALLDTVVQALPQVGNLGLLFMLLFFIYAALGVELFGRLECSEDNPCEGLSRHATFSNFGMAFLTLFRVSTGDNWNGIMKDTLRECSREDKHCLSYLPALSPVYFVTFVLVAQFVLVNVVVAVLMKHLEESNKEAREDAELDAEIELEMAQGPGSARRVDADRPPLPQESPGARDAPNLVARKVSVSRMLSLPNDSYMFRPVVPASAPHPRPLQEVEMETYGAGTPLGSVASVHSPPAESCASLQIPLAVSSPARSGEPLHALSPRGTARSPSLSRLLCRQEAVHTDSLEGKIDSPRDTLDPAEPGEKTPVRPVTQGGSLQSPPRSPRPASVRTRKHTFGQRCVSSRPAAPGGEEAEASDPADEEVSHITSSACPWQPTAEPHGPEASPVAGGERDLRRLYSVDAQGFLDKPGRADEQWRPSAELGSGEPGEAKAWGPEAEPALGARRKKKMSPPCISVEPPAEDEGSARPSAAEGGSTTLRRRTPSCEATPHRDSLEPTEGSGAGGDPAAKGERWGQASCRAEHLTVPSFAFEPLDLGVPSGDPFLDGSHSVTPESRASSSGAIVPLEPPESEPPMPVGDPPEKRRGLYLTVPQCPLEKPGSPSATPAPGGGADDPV

Row | IC50 | SMILES
1 | 2.24 µM | Cc1cccc(CN[C@H]2CC[C@H](CNC(=O)c3cc(C(F)(F)F)cc(C(F)(F)F)c3)CC2)c1O [Compound 28, N-((trans-4-(2-hydroxy-3-methylbenzylamino)cyclohexyl)methyl)-3,5-bis(trifluoromethyl)benzamide]
2 | 0.28 µM | CC(C)(C)OC(=O)NC1(CN[C@H]2CC[C@@H](CNC(=O)c3cc(C(F)(F)F)cc(C(F)(F)F)c3)CC2)CCCC1 [Compound 6, tert-butyl 1-((cis-4-((3,5-bis(trifluoromethyl)benzamido)methyl)cyclohexylamino)methyl)cyclopentylcarbamate]
3 | 6.16 µM | O=C(NC[C@H]1CC[C@@H](N2CC(C(F)(F)F)(C(F)(F)F)OC2=O)CC1)c1cc(F)cc(C(F)(F)F)c1 [Compound 154, 3-fluoro-N-((cis-4-(2-oxo-5,5-bis(trifluoromethyl)oxazolidin-3-yl)cyclohexyl)methyl)-5-(trifluoromethyl)benzamide]
4 | 0.44 µM | CC(C)(C)OC(=O)NCCN[C@H]1CC[C@@H](CNC(=O)c2cc(Cl)cc(C(F)(F)F)c2)CC1 [Compound 99, tert-butyl 2-(cis-4-((3-chloro-5-(trifluoromethyl)benzamido)methyl)cyclohexylamino)ethylcarbamate]

Each compound was assayed against T2, human α1G T-type channels (Homo sapiens, UniProt O43497) (assay: T-type calcium channel block, whole cell patch clamp (α1G)). Conditions: HEK cells stably expressing human α1G; mainly non-inactivated protocol; values above 10 μM represented as 10 μM, values below 0.30 μM represented as 0.30 μM.
T2 construct: expressed in transfected cells; host or cells: HEK 293
Assay type: cell-based
Procedure: as §1, §2, §3, §4

T2 sequence (O43497 whole entry): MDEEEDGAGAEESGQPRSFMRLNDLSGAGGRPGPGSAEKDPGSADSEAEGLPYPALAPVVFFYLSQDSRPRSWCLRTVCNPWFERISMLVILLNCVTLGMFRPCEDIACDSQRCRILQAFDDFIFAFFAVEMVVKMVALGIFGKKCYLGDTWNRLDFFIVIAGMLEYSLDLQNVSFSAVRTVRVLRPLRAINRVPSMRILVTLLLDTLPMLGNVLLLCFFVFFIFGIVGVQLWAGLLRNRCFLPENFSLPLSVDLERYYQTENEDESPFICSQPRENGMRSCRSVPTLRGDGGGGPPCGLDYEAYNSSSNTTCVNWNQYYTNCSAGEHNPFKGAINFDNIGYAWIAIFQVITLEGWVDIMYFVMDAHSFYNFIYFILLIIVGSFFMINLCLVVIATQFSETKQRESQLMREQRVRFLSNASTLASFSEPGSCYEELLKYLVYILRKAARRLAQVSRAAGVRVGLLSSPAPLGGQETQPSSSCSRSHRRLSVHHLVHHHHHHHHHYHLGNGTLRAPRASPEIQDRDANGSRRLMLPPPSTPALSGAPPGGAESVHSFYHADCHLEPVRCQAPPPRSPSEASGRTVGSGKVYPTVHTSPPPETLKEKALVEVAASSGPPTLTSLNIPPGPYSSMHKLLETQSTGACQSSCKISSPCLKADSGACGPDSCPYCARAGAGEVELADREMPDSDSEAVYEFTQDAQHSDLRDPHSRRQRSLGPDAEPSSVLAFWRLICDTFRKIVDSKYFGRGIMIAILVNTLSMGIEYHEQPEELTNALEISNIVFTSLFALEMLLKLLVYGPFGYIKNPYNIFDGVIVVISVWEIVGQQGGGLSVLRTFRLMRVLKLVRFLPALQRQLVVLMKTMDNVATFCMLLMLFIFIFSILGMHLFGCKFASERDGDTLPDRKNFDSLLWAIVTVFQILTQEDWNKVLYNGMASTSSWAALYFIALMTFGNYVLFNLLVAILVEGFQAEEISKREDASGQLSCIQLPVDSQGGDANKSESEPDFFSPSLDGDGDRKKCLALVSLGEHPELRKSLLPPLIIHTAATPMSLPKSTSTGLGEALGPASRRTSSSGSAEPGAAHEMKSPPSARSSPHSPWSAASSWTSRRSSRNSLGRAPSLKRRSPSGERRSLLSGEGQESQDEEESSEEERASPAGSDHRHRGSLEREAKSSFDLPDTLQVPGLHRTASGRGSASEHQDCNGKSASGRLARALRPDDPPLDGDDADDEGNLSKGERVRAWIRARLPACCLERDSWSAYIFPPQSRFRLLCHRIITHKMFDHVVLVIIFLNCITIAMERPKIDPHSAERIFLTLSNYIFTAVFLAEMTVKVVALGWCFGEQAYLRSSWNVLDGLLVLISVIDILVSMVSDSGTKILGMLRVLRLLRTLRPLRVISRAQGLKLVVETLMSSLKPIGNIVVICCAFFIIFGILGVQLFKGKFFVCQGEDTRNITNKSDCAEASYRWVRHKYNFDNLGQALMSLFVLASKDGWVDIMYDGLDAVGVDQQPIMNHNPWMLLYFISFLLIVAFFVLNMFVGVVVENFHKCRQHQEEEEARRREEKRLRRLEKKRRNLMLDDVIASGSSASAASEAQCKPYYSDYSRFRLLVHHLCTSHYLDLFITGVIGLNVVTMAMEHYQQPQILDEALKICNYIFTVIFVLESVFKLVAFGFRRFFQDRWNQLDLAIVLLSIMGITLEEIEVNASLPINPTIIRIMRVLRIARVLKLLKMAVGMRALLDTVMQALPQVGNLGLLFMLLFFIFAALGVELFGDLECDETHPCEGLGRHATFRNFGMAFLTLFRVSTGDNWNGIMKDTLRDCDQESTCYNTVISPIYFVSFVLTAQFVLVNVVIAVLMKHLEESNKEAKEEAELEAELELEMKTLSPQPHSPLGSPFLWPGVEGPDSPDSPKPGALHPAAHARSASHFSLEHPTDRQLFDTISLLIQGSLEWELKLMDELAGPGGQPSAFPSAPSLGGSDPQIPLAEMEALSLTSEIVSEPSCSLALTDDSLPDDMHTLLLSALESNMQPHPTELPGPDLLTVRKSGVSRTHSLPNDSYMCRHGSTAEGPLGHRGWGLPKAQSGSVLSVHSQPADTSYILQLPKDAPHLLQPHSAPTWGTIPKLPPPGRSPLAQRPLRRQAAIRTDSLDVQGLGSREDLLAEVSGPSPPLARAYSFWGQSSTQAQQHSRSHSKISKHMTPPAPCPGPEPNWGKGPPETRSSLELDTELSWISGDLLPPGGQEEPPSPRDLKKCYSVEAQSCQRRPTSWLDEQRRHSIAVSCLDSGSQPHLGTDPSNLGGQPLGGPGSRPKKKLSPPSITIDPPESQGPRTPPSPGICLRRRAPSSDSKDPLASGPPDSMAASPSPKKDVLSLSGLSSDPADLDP

Row | IC50 | SMILES
5 | 3.82 µM | O=C(C[C@H]1CC[C@@H](NC(=O)C2CCNCC2)CC1)Nc1cc(C(F)(F)F)cc(C(F)(F)F)c1 [Compound 144, N-(cis-4-(2-(3,5-bis(trifluoromethyl)phenylamino)-2-oxoethyl)cyclohexyl)piperidine-4-carboxamide]
6 | 4.44 µM | O=C(C[C@H]1CC[C@H](NC(=O)[C@@H]2CCCCN2)CC1)Nc1cc(C(F)(F)F)cc(C(F)(F)F)c1 [Compound 120, (S)-N-(trans-4-(2-(3,5-bis(trifluoromethyl)phenylamino)-2-oxoethyl)cyclohexyl)piperidine-2-carboxamide]
7 | ≥ 10 µM | O=C(NC[C@H]1CC[C@@H](NCCNS(=O)(=O)C(F)(F)F)CC1)c1cc(F)cc(C(F)(F)F)c1 [Compound 156, 3-fluoro-5-(trifluoromethyl)-N-((cis-4-(2-(trifluoromethylsulfonamido)ethylamino)cyclohexyl)methyl)benzamide]
8 | 4.11 µM | Cc1ccc(-c2csc(NC(=O)C[C@H]3CC[C@@H](NC(=O)[C@@H]4C[C@H](c5ccccc5)CN4)CC3)n2)cc1 [Compound 130, (2S,4R)-N-(cis-4-(2-oxo-2-(4-p-tolylthiazol-2-ylamino)ethyl)cyclohexyl)-4-phenylpyrrolidine-2-carboxamide]
9 | 2.94 µM | O=C(C[C@H]1CC[C@@H](NC(=O)C2(O)CCNCC2)CC1)Nc1cc(C(F)(F)F)cc(C(F)(F)F)c1 [Compound 148, N-(cis-4-(2-(3,5-bis(trifluoromethyl)phenylamino)-2-oxoethyl)cyclohexyl)-4-hydroxypipendine-4-carboxamide]
10 | 2.65 µM | O=C(NC[C@H]1CC[C@H](NCCNS(=O)(=O)C(F)(F)F)CC1)c1cc(C(F)(F)F)cc(C(F)(F)F)c1 [Compound 155, 3,5-bis(trifluoromethyl)-N-((trans-4-(2-(trifluoromethylsulfonamido)ethylamino)cyclohexyl)methyl)benzamide]
11 | 4.88 µM | Cc1ccc(-c2csc(NC(=O)C[C@H]3CC[C@@H](NC(=O)[C@H]4CC[C@@H](c5ccccc5)N4)CC3)n2)cc1 [Compound 138, (2R,5S)-N-(cis-4-(2-oxo-2-(4-p-tolylthiazol-2-ylamino)ethyl)cyclohexyl)-5-phenylpyrrolidine-2-carboxamide]
12 | ≥ 10 µM | NC1(C(=O)N[C@H]2CC[C@@H](CC(=O)NCc3cccc(OC(F)(F)F)c3)CC2)CCCCC1 [Compound 109, 1-amino-N-(cis-4-(2-oxo-2-(3-(trifluoromethoxy)benzylamino)ethyl)cyclohexyl)cyclohexanecarboxamide]
13 | 4.89 µM | O=C(C[C@H]1CC[C@H](NC(=O)[C@H]2CCCN2)CC1)Nc1cc(C(F)(F)F)cc(C(F)(F)F)c1 [Compound 118, (R)-N-(trans-4-(2-(3,5-bis(trifluoromethyl)phenylamino)-2-oxoethyl)cyclohexyl)pyrrolidine-2-carboxamide]
14 | 4.07 µM | NC1(C(=O)N[C@H]2CC[C@@H](CC(=O)Nc3cc(C(F)(F)F)cc(C(F)(F)F)c3)CC2)CC1 [Compound 149, 1-amino-N-(cis-4-(2-(3,5-bis(trifluoromethyl)phenylamino)-2-oxoethyl)cyclohexyl)cyclopropanecarboxamide]
15 | 9.67 µM | NC1(C(=O)N[C@H]2CC[C@@H](CNC(=O)c3cc(C(F)(F)F)cc(C(F)(F)F)c3)CC2)CCCC1 [Compound 140, N-((cis-4-(1-aminocyclopentanecarboxamido)cyclohexyl)methyl)-3,5-bis(trifluoromethyl)benzamide]
16 | ≥ 10 µM | NC1(C(=O)N[C@H]2CC[C@H](CNC(=O)c3cc(C(F)(F)F)cc(C(F)(F)F)c3)CC2)CCCC1 [Compound 142, N-((trans-4-(1-aminocyclopentanecarboxamido)cyclohexyl)methyl)-3,5-bis(trifluoromethyl)benzamide]
17 | 7.6 µM | O=C(C[C@H]1CC[C@@H](NC(=O)[C@H]2C[C@H](O)CN2)CC1)Nc1cc(C(F)(F)F)cc(C(F)(F)F)c1 [Compound 145]
18 | ≥ 10 µM | NC1(C(=O)N[C@H]2CC[C@@H](CNC(=O)c3cc(F)cc(C(F)(F)F)c3)CC2)CCCC1 [Compound 141, N-((cis-4-(1-aminocyclopentanecarboxamido)cyclohexyl)methyl)-3-fluoro-5-(trifluoromethyl)benzamide]
19 | 7.56 µM | Cc1ccc(-c2csc(NC(=O)C[C@H]3CC[C@@H](NC(=O)[C@@H]4CC[C@H](c5ccccc5)N4)CC3)n2)cc1 [Compound 131]
20 | 4.59 µM | NC1(C(=O)N[C@H]2CC[C@@H](CC(=O)Nc3cc(C(F)(F)F)cc(C(F)(F)F)c3)CC2)CCOCC1 [Compound 147, 4-amino-N-(cis-4-(2-(3,5-bis(trifluoromethyl)phenylamino)-2-oxoethyl)cyclohexyl)tetrahydro-2H-pyran-4-carboxamide]
21 | 5.29 µM | Cc1ccc(-c2csc(NC(=O)C[C@H]3CC[C@@H](NC(=O)[C@@H]4C[C@@H](c5ccccc5)CN4)CC3)n2)cc1 [Compound 129, (2S,4S)-N-(cis-4-(2-oxo-2-(4-p-tolylthiazol-2-ylamino)ethyl)cyclohexyl)-4-phenylpyrrolidine-2-carboxamide]
22 | 6.11 µM | N[C@H]1CC[C@@H](CC(=O)Nc2cc(C(F)(F)F)cc(C(F)(F)F)c2)CC1 [Compound 106, 2-(cis-4-aminocyclohexyl)-N-(3,5-bis(trifluoromethyl)phenyl)acetamide]

Row | SMILES | IC50
23 | O=C(NC[C@H]1CC[C@H](NC(=O)C2(c3ccccc3)CCNCC2)CC1)c1cc(C(F)(F)F)cc(C(F)(F)F)c1 [Compound 136, N-(trans-4-((3,5-bis(trifluoromethyl)benzamido)methyl)cyclohexyl)-4-phenylpiperidine-4-carboxamide] | 3.81 µM
24 | O=C(C[C@H]1CC[C@@H](NC(=O)C2(c3ccccc3)CCNCC2)CC1)NCc1cccc(OC(F)(F)F)c1 [Compound 114, N-(cis-4-(2-oxo-2-(3-(trifluoromethoxy)benzylamino)ethyl)cyclohexyl)-4-phenylpiperidin-4-carboxamide] | ≥ 10 µM
25 | O=C(NC[C@H]1CC[C@@H](NC(=O)C2(c3ccccc3)CCNCC2)CC1)c1cc(C(F)(F)F)cc(C(F)(F)F)c1 [Compound 128, N-(cis-4-((3,5-bis(trifluoromethyl)benzamido)methyl)cyclohexyl)-4-phenylpiperidine-4-carboxamide] | 5.78 µM
